{
  "source": "paper PMC5684143",
  "about": "“New melanocortin-like peptide of E. coli can suppress inflammation via the mammalian melanocortin-1 receptor (MC1R): possible endocrine-like function for microbes of the gut” (NPJ Biofilms and Microbiomes, 2017)",
  "key": {"[1]": {"test_system": "RAW 264.7 cells", "assay": "HMGB1-induced TNF release by RAW 264.7 macrophage-like cells", "assay_type": "cell-based, murine", "method": "Fig. 1 MECO-1 attenuates HMGB1-induced TNF release by macrophages in culture. Murine macrophage-like RAW 264.7 cells were incubated for up to 24 h with purified recombinant HMGB1 (0.1 mg/ml) in the absence or presence of MECO-1 (Panel a), or alpha-MSH (Panel b), at 10^−10 and 10^−12 M. The levels of TNF in the culture medium were determined by ELISA and expressed as mean ± SEM of two independent experiments (in duplicate). *p < 0.05, **p < 0.01 vs. control (“HMGB1 alone”). […] In panels c and d, cells were incubated with HMGB1 for 6 h with or without MECO-1 or alpha-MSH (10^−16–10^−6 M). Data represent mean ± SEM of three independent experiments performed in duplicate. With 10^−14 M peptide, results were significant at *p < 0.05, and at 10^−12 M or more were typically **p < 0.01. In our experiments, at concentrations of MECO-1, alpha-MSH, and ACTH of around 1 nM and higher, dose response curves often reverse direction, i.e., turn upward. The reversal is more clearly seen in Fig. 2. The mechanism of the reversal is not known. (Desensitization, receptor inactivation, receptor internalization, and dissociation of dimeric receptors are all plausible candidates.) As a result, the shape of the lower part of the curve and the actual inflection point may vary from experiment to experiment. This feature may be missed when results of several experiments are combined\n(§1) Murine macrophage-like RAW 264.7 cells were obtained from American Type Culture Collection, and were grown in Dulbecco’s Modified Eagle’s Medium (DMEM, Life Technologies) containing 10% (vol/vol) heat-inactivated fetal bovine serum (FBS, Hyclone Lab. Inc.), penicillin 100 U/ml, and streptomycin 100 μg/ml (BioWhittaker Inc.). Cells were suspended in medium and incubated in 24-well or 48-well tissue-culture plates overnight in a humidified incubator (37 °C, 5% CO2). Growth medium was removed and replaced by Opti-MEM I serum-free medium (Life Technologies) overnight. In the experiments, cell monolayers were stimulated with HMGB1 or LPS, in the absence or presence of MECO-1 or alpha-MSH; cell-free supernatants were assayed for TNF by ELISA or HMGB1 by western blotting.\n(§2) Concentrations of TNF and IL-6 were each determined using a commercially available enzyme-linked immunosorbent assay (ELISA) kit (R&D System Inc.) as previously described.[34] The levels of TNF or IL-6 were calculated with reference to standard curves.\nFig. 3 Antibody to MC1R blocks suppressant effect of MECO-1 and alpha-MSH. Murine macrophage-like RAW 264.7 cells were pretreated with specific antibodies (“anti-MC1R Ab”) against melanocortin-1 receptor (MC1R) for 10 min prior to addition of HMGB1 in the absence or presence of MECO-1 or alpha-MSH at 10^−12 M. At 6 h, the TNF content of the cell-free medium was determined by ELISA, and expressed as mean ± SEM of two independent experiments performed in duplicate. ACTH at the same concentration gave results that were indistinguishable from those of alpha-MSH and MECO-1 (data not shown)"}, "[2]": {"test_system": "RAW 264.7 cells", "assay": "LPS-induced HMGB1 release by RAW 264.7 cells (western blot)", "assay_type": "cell-based, murine", "conditions": "LPS 100 ng/ml, peptide 10^-10 M, 16-20 hrs, four independent experiments, P < 0.01", "method": "as §1, with “In the experiments, cell monolayers were stimulated with HMGB1 or LPS, in the absence or presence of MECO-1 or alpha-MSH; cell-free supernatants were assayed for TNF by ELISA or HMGB1 by western blotting.” left out\nThe levels of HMGB1 in the culture medium or murine serum were measured by western immunoblotting as previously described.[30] […] The relative band intensity was quantified by using the NIH image 1.59 software. The levels of HMGB1 (expressed as % maximum effect) were calculated with reference to standard curves generated with purified rHMGB1 and expressed as mean ± SEM of four experiments.\nMurine macrophage-like RAW 264.7 cells were incubated with LPS (100 ng/ml) in the absence or presence of MECO-1 or alpha-MSH at 10^-10 M. At 16-20 hrs after stimulation, aliquots of cell-free medium were examined. HMGB1 levels in the (conditioned) culture medium were expressed as mean ± SEM of four independent experiments with the peak level (obtained with LPS) set at 100%. […]"}, "[3]": {"test_system": "human peripheral blood mononuclear cells (PBMC)", "assay": "HMGB1-induced TNF release by human PBMC-derived macrophages", "assay_type": "cell-based", "conditions": "differentiated human macrophages; HMGB1 6 hours; ELISA; three independent experiments in duplicate", "method": "Human PBMC were isolated by density gradient through Ficoll-Paque^TM PLUS centrifugation (Amersham Pharmacia Biotech), and suspended in RPMI 1640 containing 10% (vol/vol) heat-inactivated human serum (BioWhittaker Inc.), penicillin 100 U/ml, and streptomycin 100 μg/ml, and incubated at 37 °C in a humidified incubator with 5% CO2 atmosphere overnight. Non-adherent cells were discarded. Adherent monocytes were washed twice with PBS and were then suspended in 12-well and 24-well tissue culture plates and incubated in the same medium but now enriched with 2.5 ng/ml macrophage colony-stimulating factor for 5–7 days.[33] […]\nas §2\nHuman peripheral blood mononuclear cells (PBMC) were isolated by density gradient centrifugation through Ficoll-PaqueTM PLUS, and cultured for 5-7 days in medium containing macrophage colony-stimulating factor (2.5 ng/ml). […] The content of TNF in the cell-free medium was determined by ELISA and expressed as mean ± SEM of three independent experiments performed in duplicate. *p< 0.05, **p< 0.01 vs. control (=HMGB1 alone without added melanocortin peptide)."}, "[4]": {"test_system": "RAW 264.7 cells", "assay": "LPS-induced TNF release by RAW 264.7 cells", "assay_type": "cell-based, murine", "conditions": "LPS 10 ng/ml; peptides 10^-12 M; agouti 10-10^5 pM", "method": "as §1, §2\nFig. 2 Cytokine-induced TNF release inhibited by MECO-1. a Lipopolysaccharide (LPS), derived from the cell wall of Gram-negative bacteria, is a TLR4 and TLR2 agonist. RAW 264.7 cells were treated with MECO-1 and LPS simultaneously and incubated overnight. Supernatants were tested for TNF with ELISA. b Poly I:C, synthetic double stranded RNA, is recognized by TLR3. RAW 264.7 cells were pre-treated with MECO-1 and then stimulated with Poly I:C. Supernatants were tested in ELISA by TNF. c Peptidoglycan (PGN), another TLR2 agonist, is ubiquitous in the cell wall of bacteria. RAW 264.7 cells were pre-treated with MECO-1 and then stimulated with PGN; after overnight stimulation, supernatants were harvested and tested for TNF ELISA. d HMGB-1. Each vertical bar is the mean of three experimental points, using HMGB-1 to induce TNF release. Three sets of three experiments were used for the measurement of inhibition\nFig. 5 a Bioactive analogues of MECO-1. Murine macrophage-like RAW 264.7 cells were incubated with lipopolysaccharide (LPS, 4 ng/ml) in the absence or presence of MECO-1 or BACTN or BACFR, synthetic peptides based on the C-termini of EF-G of Bacteroides thetaiotamicron and Bacteroides fragilis. EFG-2 refers to human mitochondrial EFG-2 (mtEFG2). For Bacteroides thetaiotamicron, we used a 38-mer consisting of residues 681–703 shown in Fig. 4c followed by 704–718 QDKLIKDFEAKQTEE. For Bacteroides fragilis, we used a 33-mer consisting of residues, 681–703 shown in Fig. 4c followed by 704–713 = QDKLIKDFES. At 6 h after stimulation, aliquots of cell-free medium were examined. In other experiments, the synthetic peptide based on human mitochondrial EF-G1 (mtEFG1) gave results indistinguishable from EF-G2 (data not shown). The precise structure of the synthetic peptides is indicated in the text (see section “Results” and Table 1). Shown is a representative experiment."}},
  "data": [
    {"compound": "adrenocorticotropin (SYSMEHFRWGKPVGKKRRPVKVYPNGAEDESAEAFPLEF; Corticotropin; UniProt P01189 138-176, looked up) [ACTH, mammalian melanocortin hormone ACTH (1-39), purchased from Bachem]", "values": [
      {"measurement": "suppression of HMGB-1-induced TNF release", "setting": "[1]; RAW 264.7 cells, data not shown", "value": "highly significant suppression, typically in the subpicomolar range"},
      {"measurement": "TNF accumulation with HMGB1 on co-incubation with peptide", "setting": "[1]; peptide 10^−12–10^−8 M", "value": "substantially reduced"},
      {"measurement": "LPS-induced HMGB-1 secretion", "setting": "[2]", "value": "indistinguishable from MECO-1 and alpha-MSH"},
      {"measurement": "attenuation of HMGB-1-induced TNF release", "setting": "[3]", "value": "very similar results"}
    ]},
    {"compound": "Mouse agouti (93-132)-NH2", "values": [
      {"measurement": "effect of agouti on attenuation by MECO-1 and alpha-MSH of LPS-induced TNF release", "setting": "[4]", "value": "reversed the attenuation"}
    ]},
    {"compound": "O=S(=O)(NCCNC/C=C/c1ccc(Br)cc1)c1cccc2cnccc12", "note": "[H89]", "values": [
      {"measurement": "effect of H89 on peptide-mediated reduction of HMGB1-induced TNF accumulation", "setting": "[1]; H89 1mM added 10 minute before, peptides 10^-10 M, 6h, two independent experiments in duplicate", "value": "abrogated the effects of the three peptides"}
    ]}
  ]
}
